Laboratory results as given in patent publication US20090136434A1, “Tyrosinase enzyme inhibitors from fungal hydroxylation of tibolone” (HEJ Research Institute, priority 2007, published 2009).

Molecular target: mushroom tyrosinase
Experiment: Tyrosinase inhibition assay (o-diphenolase activity, L-DOPA as substrate)
Assay type: biochemical
Settings: mushroom tyrosinase 30 units (28 nM), L-DOPA 0.5 mM, pH 6.8, absorbance at 475 nm, mean ± S.E.M., at least triplicates; read-out: IC50 ± SEM (in μM), tyrosinase inhibitory activity
Experimental: Tyrosinase inhibition assays were performed in 96-well microplate format using SpectraMax 340 microplate reader (Molecular Devices, CA, USA) according to the method developed by Hearing (1987). Briefly, first the compounds were screened for the o-diphenolase inhibitory activity of tyrosinase using L-DOPA as substrate. […] Compounds were dissolved in methanol to a concentration of 2.5%. 30 units of mushroom tyrosinase (28 nM from Sigma Chemical Co., USA) first preincubated with the compounds in […] Na-phosphate buffer (pH 6.8) for 10 min at 25° C. Then, the L-DOPA (0.5 mM) was added to the reaction mixture and the enzyme reaction was monitored by measuring the change in absorbance at 475 nm (at 37° C.) due to the formation of the DOPA chrome for 10 min. The percent inhibition of the enzyme was calculated as =[…], wherein the B and S are absorbance for the blank and samples, respectively. After screening, the compounds median inhibitory concentration (IC50) was also calculated. […] (Hearing et al., Int J Biochem, 19(12): 1141-71987).
N[C@@H](Cn1ccc(=O)c(O)c1)C(=O)O [L-Mimosine, L-mimosine, reference compound] showed an IC50 of 3.68 ± 0.022 µM. Work on C#CC1(O)CCC2C3C(CCC21C)C1=C(CC(=O)CC1)C(O)C3C (stereo not drawn) [Metabolite 1, 6β-Hydroxytibolone] yielded an IC50 of 7.45 ± 0.21 µM. With C#CC1(O)CC(O)C2C3C(C)CC4=C(CCC(=O)C4)C3CCC21C (stereo not drawn) [Metabolite 2, 15β-Hydroxytibolone] the IC50 was 50.86 ± 0.36 µM. C#CC1(O)CCC2C3C(C)CC4=CC(=O)CCC4C3CCC21C (stereo not shown) [Metabolite 3, Δ^4-Tibolone] gave an IC50 of 8.19 ± 0.54 µM. In the case of C#CC1(O)CCC2C3C(C)CC4=CC(=O)CCC4(O)C3CCC21C (stereo not drawn) [Metabolite 4, 10β-Hydroxy-Δ^4-Tibolone], the IC50 is reported as 119.4 ± 0.2 µM. With C#CC1(O)CC(O)C2C3C(C)CC4=C(CCC(=O)C4)C3C(O)CC21C (stereo not drawn) [Metabolite 5, 11α,15β-Dihydroxytibolone] the IC50 was 5.12 ± 0.67 µM. Compound C#CC1(O)CC(O)C2C3C(C)C=C4CC(=O)CCC4C3C(O)CC21C (stereo not drawn) [Metabolite 6, 11α,15β-Dihydroxy-Δ^5-Tibolone] has an IC50 of 7.1 ± 0.13 µM. In the case of C#CC1(O)CCC2C3C(C)C(O)C4=CC(=O)CCC4C3CCC21C (stereo not drawn) [Metabolite 7, 6β-Hydroxy-Δ^4-Tibolone], the IC50 is reported as 36.14 ± 0.21 µM. C#CC1(O)CCC2C3C(C)C(OC)C4=CC(=O)CCC4C3CCC21C (stereo not drawn) [Metabolite 8, 6β-Methoxy-Δ^4-Tibolone] gave an IC50 of 25.15 ± 0.24 µM.

Tested on: Salmonella typhimurium
Experiment: not given
Settings: studies referred to, no data of the applicant; cited from earlier work
For O=c1cc(CO)occ1O [Kojic acid], the “mutagenic activity in a Salmonella typhimurium assay” value is given as “weak mutagenic activity”.

Tested on: not given
Experiment: not given
Settings: not given
With C#CC1(O)CCC2C3C(CCC21C)C1=C(CC(=O)CC1)C(O)C3C (stereo not drawn) [Metabolite 1, 6β-Hydroxytibolone] the melting point was 202 to 205 °C. For C#CC1(O)CC(O)C2C3C(C)CC4=C(CCC(=O)C4)C3C(O)CC21C (stereo not drawn) [Metabolite 5, 11α,15β-Dihydroxytibolone], the melting point was 208 to 210 °C. Compound C#CC1(O)CC(O)C2C3C(C)C=C4CC(=O)CCC4C3C(O)CC21C (stereo not drawn) [Metabolite 6, 11α,15β-Dihydroxy-Δ^5-Tibolone] has a melting point of 207 to 211 °C.
